Laboratory results taken from US6552066B1, “Protein tyrosine kinase inhibitors for treating osteoarthritis” (priority 1995, dated 2003).

What was measured:
stromelysin mRNA = test: Northern blot of IL-1-induced stromelysin mRNA in primary bovine chondrocytes; assay type: cell-based; details: 2 h preincubation, IL-1α 1 ng/ml 24 hours
Protocol: The isolation of cartilage and the enzymatic degradation of cartilage was carried out as described in Example 1.
Chondrocytes were recovered by addition of an equal volume of DMEM/F12 supplemented with 10% fetal bovine serum (FBS) to neutralize enzymes, filtration through a 70μm nylon Cell Strainer (Falcon), and centrifugation at 1000×g for ten minutes at room temperature. Chondrocytes were seeded in T-150 plates at 5×10^4 cells/cm^2 using 1:1 DMEM/F12, 10% FBS, 1% antibiotic solution (penicillin, streptomycin, fungizone: GIBCO/BRL), and incubated at 37° C., 5% CO2. Cells were refed with DMEM/F12 plus 10% FBS on days 4, 7, and 10. On day 11, test cultures (except for the+interleukin 1α control) were rinsed in phosphate buffered saline (PBS), and preincubated for 2 hours with 5 ml of serum-free DMEM/F12 containing one of the following protein kinase inhibitors:
1) Protein kinase A (PKA) inhibitors; 0.5 μM H88 (Seikagaku Corp.), 0.5 μMH89 (Seikagaku Corp.); 2) Protein kinase G (PKG) and PKA inhibitor; 5.0 μM H89; 3) Protein kinase C. (PKC) inhibitors; 0.5 μM Calphostin C (Calbiochem), 1.0 μM chelerythrine (Calbiochem); 4) CA^2+/Calmodulin Kinase II inhibitor; 5.0 μM KN93 (Seikagaku Corp.); 5) Protein tyrosine kinase (PTK) inhibitors; 50 μM Genistein (Calbiochem), 10 μM Herbimycin A (Calbiochem), 50 μM Tyrphostin A25 (AG 82) (Calbiochem), 50 μm Tyrphostin AG 126 (Calbiochem), 50 μM Tyrphostin B56 (AG 556) (Calbiochem), 20 μM DAPH (Calbiochem).
Recombinant human interleukin 1 α (IL-1α) (R & D Systems) at 1 ng/ml was then added to all cultures (except the IL-1α control) for 24 hours in serum-free DMEM/F12 containing 1% antibiotic solution.
RNA on the Northern blot was fixed to the membrane by baking at 80° C. for 30 minutes.
Prehybridization (1.5 hours) and hybridization (overnight) of the Northern blot with the radioactive probes were performed in 50% formamide, 1×GIBCO/BRL hybridization solution, 0.1% SDS, and 10mM monobasic sodium phosphate, at 42° C. The blot was successively washed two times in 1×SSC/0.1% SDS (15 minutes/wash at room temperature), and two times in 0.2×SSC/0.1% SDS (30 minutes/wash at 55° C.). The blot was allowed to air dry, and was exposed to X-ray film, with intensifying screen, overnight at −70° C.

[1] = system: IL-1-induced aggrecan degradation; test: Aggrecan degradation in IL-1-stimulated chondrocytes, 2-B-6 antibody immunoblot; assay type: cell-based, bovine; details: for intensity of staining (total amount of PG fragments), 2-B-6: relative to PKA, PKC and calmodulin-dependent kinase inhibitor samples
Protocol: Primary bovine articular chondrocytes from calf adio-carpal joints were isolated and cultured as above in Example 1, up to and including the addition of the following protein kinase inhibitors: 1) Protein kinase A (PKA) inhibitors; 0.5 μM H88 (Seikagaku Corp.), 0.5 μM H89 (Seikagaku Corp.); 2) Protein kinase C (PKC) inhibitors; 0.5 μM Calphostin C (Calbiochem), 1.0 μM Chelerythrine (Calbiochem); 3) CA^2+/Calmodulin Kinase II inhibitor; 5.0 μM KN93 (Seikagaku Corp.); 4) Protein tyrosine kinase (PTK) inhibitors; 50 μM Genistein (Calbiochem), 10 μM Herbimycin A (Calbiochem). After the 24 hour IL-1α incubation, the media of each sample was measured, and collected on ice in the presence of the protease inhibitors EGTA (5 mM), Pefaloc (1 mM), pepstatin (1 μg/ml), and NEM (5 mM). Media were concentrated approximately 40 fold using a Centriprep-10 ultrafiltration device (Amicon).
Proteoglycans contained within the media were deglycosylated by incubations with chondroitinase ABC, keratinase, and keratinase II following the procedure of Sandy et al. J Biol Chem (1991) 266:8683-8685 and Sandy et al. J. Clin Invest (1992) 89:1512-1516. Samples of deglycosylated media were subjected to 4-15% gradient SDS-PAGE and transferred to nitrocellulose membranes (2 ml-worth and 6 ml-worth of media were used for 2-B-6 and BC-3 immunoblotting, respectively.) The membranes were blocked with 1% nonfat dry milk and 1% BSA, and then incubated in either the BC-3 or 2-B-6 primary monoclonal antibody for 1 hour. The 2-B-6 antibody detects chondroitin sulfate stubs on chondroitinase-treated proteoglycans (both intact and degradation products. BC-3 antibody detects “ARGSV . . . ,” the new N-terminus (“neoepitope”) resulting from cleavage of aggrecan interglobular domain at Glu^373/ALA^374 by aggrecanase. It is of note to mention that the BC-3 and 2-B-6 antibodies were of low sensitivity. Following 3 washes, membranes were incubated in either alkaline phosphatase-conjugated goat anti-mouse (for the 2-B-6 blot) or biotinylated goat anti-mouse (for the BC-3 blot); followed by alkaline phosphatase-conjugated streptavidin/biotin complex). After washing 3 times, immunoreactive proteins were detected using NBT/BCIP (Sigma) colorimetric substrate.
The 2-B-6 antibody detected intact aggrecan (the uppermost band) and several aggrecan degradation products, along with decorin and biglycan (50K doublet), in the IL-1-treated media samples. […] The bands in the IL-1 sample that are seen at 230K, 200K, 130K and 100K have been previously identified by sequence analysis to result from IL-1-induced “aggrecanase” cleavage.
A repeat of the Western immunoblotting experiment using 2-B-6 antibodies was performed. Furthermore, additional inhibitors from four enzyme families were examined: 1) Protein tyrosine kinase (PTK) inhibitors; 1 μM Tryphostin AG 1296 (Calbiochem), 50 μM Tyrphostin A25 (AG 82) (Calbiochem), 50 μM Tyrphostin AG 126 (Calbiochem), 50 μM Tyrphostin B56 (AG 556) (Calbiochem), 20 μM DAPH (Calbiochem); 2) Guanylate cyclase inhibitor; 10 μM LY-83583 (Calbiochem); 3) Casein kinase I inhibitor; 20 μM CKI-7 (Seikagaku Corp.); and 4) Protein kinase G (PKG) and PKA inhibitor; 5.0 μM H89.

Compound: O=C1NC(=O)c2cc(Nc3ccccc3)c(Nc3ccccc3)cc21 [DAPH, 4,5-dianilinophthalimide]
- inhibition of IL-1-induced upregulation of stromelysin mRNA levels (stromelysin mRNA; 20 μM): Total inhibition
- inhibition of IL-1-induced aggrecan degradation, 2-B-6 ([1]; 20 μM, repeat experiment): moderately strong inhibition

Compound: O=c1c(-c2ccc(O)cc2)coc2cc(O)cc(O)c12 [Genistein]
- inhibition of IL-1-induced upregulation of stromelysin mRNA levels (stromelysin mRNA; 50 μM): Total inhibition
- level of the 230K aggrecan degradation product, 2-B-6 ([1]; 50 μM): significantly reduce
- levels of the uppermost band (intact aggrecan), 2-B-6 ([1]; 50 μM): increased
- intensity of staining (total amount of PG fragments), 2-B-6 ([1]; 50 μM): reduced
- inhibition of IL-1-induced aggrecan degradation, 2-B-6 ([1]; 50 μM, repeat experiment): partial inhibition

Compound: CO[C@H]1[C@@H](OC)C[C@H](C)[C@@H](OC)C2=CC(=O)C=C(NC(=O)/C(C)=C/C=C\[C@H](OC)[C@@H](OC(N)=O)/C(C)=C/[C@@H]1C)C2=O [Herbimycin A]
- inhibition of IL-1-induced upregulation of stromelysin mRNA levels (stromelysin mRNA; 10 μM): Total inhibition
- level of the 230K aggrecan degradation product, 2-B-6 ([1]; 10 μM): significantly reduce
- levels of the uppermost band (intact aggrecan), 2-B-6 ([1]; 10 μM): increased
- intensity of staining (total amount of PG fragments), 2-B-6 ([1]; 10 μM): reduced
- inhibition at 10 µM ([1]; Bos taurus, Chondrocyte, 10 μM, repeat experiment): ~100%

Compound: N#CC(C#N)=Cc1cc(O)c(O)c(O)c1 [Tyrphostin AG 82]
- inhibition of IL-1-induced upregulation of stromelysin mRNA levels (stromelysin mRNA; 50 μM): no effect
- inhibition of IL-1-induced aggrecan degradation, 2-B-6 ([1]; 50 μM, repeat experiment): moderate inhibition

Compound: N#CC(C#N)=Cc1ccc([N+](=O)[O-])c(O)c1 [Tyrphostin AG 126]
- inhibition of IL-1-induced upregulation of stromelysin mRNA levels (stromelysin mRNA; 50 μM): no effect
- inhibition of IL-1-induced aggrecan degradation, 2-B-6 ([1]; 50 μM, repeat experiment): no inhibitory effect

Compound: N#C/C(=C\c1ccc(O)c(O)c1)C(=O)NCCCCc1ccccc1 [Tyrphostin AG 556]
- inhibition of IL-1-induced upregulation of stromelysin mRNA levels (stromelysin mRNA; 50 μM): Total inhibition
- inhibition of IL-1-induced aggrecan degradation, 2-B-6 ([1]; 50 μM, repeat experiment): 100%
